pIC50: −log10 of the molar value. Read-outs that look alike come from different tables or passages of the source.
Experiments:
KDR = target: T1, KDR (Homo sapiens, UniProt P35968); assay: KDR receptor phosphorylation in intact PAEC cells; format: cell-based; conditions: intact PAEC cells expressing KDR, VEGF stimulated; read-out: IC50 (50% inhibition of phosphorylation) KDR
T1 construct: expressed in transfected cells; host or cells: porcine aortic endothelial cells (PAEC), stably transfected
Procedure: (§1) Effect of tyrphostins on PDGF-induced PDGFR autophosphorylation in intact PAEC cells: PAEC cells, transfected with either PDGFR or KDR, cultivated in Ham's F-12 medium supplemented with 10% fetal calf serum (FCS), were synchronized for 20 hours in a medium containing 0.01% BSA. […] After stimulation, the cells were solubilized in Nonidet P-40 (1%) containing lysis buffer.
The analysis of KDR receptor phosphorylation was performed as follows. Cell lysates were subjected to immunoprecipitation using the KDR specific antiserum. The precipitates were subjected to polyacrylamide (7.5%) gel electrophoresis in presence of sodium dodecyl sulfate (SDS-PAGE) and were thereafter blotted onto a nitrocellulose membrane (Hybond C-EXTRA, Amersham). Phosphorylated proteins were detected by immunoblotting using the horseradish-peroxidase conjugated phosphotyrosine antibody RC20H (Transduction Laboratories), followed by chemoluminescence-based detection (ECL, Amersham) and autoradiography.

[1] = tested on: human coronary artery SMC (HCASMC); assay: HCASMC migration (Boyden chamber); format: cell-based
Procedure: Human coronary artery endothelial cells (HCAEC) and human coronary artery smooth muscle cells (HCASMC) were purchased from Clonetics (Heidelberg), and grown in EBM medium (supplemented with EGM-MV SINGLE QUOTS®) or in SmBM medium (supplemented with SmGM-2 SINGLE QUOTS®), respectively (Clonetics).
Assessment of cell migration (Chemotaxis assay): The chemotactic response of HCASMC, PAEC/KDR and PAEC/PDGFR cells was assessed using the modified Boyden chamber (Neuro Probe, Inc.) and collagen-coated polycarbonate filters (Nucleopore) with pore diameters of 8 μm as previously described. Briefly, PAEC/KDR and PAEC/PDGFR cells were cultivated and assayed in Ham's F12 medium containing 10% FCS. HCASMC were cultivated in SmGM-2 (clonetics) and assayed in SmBM-WM containing 10% FCS and 0.1% BSA. To the medium in the lower part of the Boyden chamber, either VEGF or PDGF-BB (10 ng/ml, respectively) were added. AG2033 was added to both upper and lower chamber parts. Suspended cells were given 4 hours for migration, after a preincubation period of 15 minute in AG2033. The number of cells that migrated without PDGF-BB or VEGF stimulation was referred to as 100% migration (chemokinesis). The assay was performed in triplicate, and five medium-power fields were counted per well using a light microscope (Jenalab).
Further evaluation of HCASMC cells migration toward PDGD-BB, in the presence of purified “transoid” isomers, was conducted in a Boyden chamber (see experimental section, above).

PDGFβR = target: T2, PDGFβR (Mus musculus, UniProt P05622); assay: PDGFR autophosphorylation, purified receptor from Swiss 3T3 cell membranes (cell free); format: biochemical; conditions: for % of Control (percent autokinase activity): isolated PDGFβR; for pIC50: isolated PDGFR from Swiss 3T3 cell membranes, read-out: IC50 (50% inhibition of phosphorylation)
T2 construct: A preparation of purified PDGFR from Swiss 3T3 cell membranes was used; endogenous in cells
T2 sequence (P05622 32-1098): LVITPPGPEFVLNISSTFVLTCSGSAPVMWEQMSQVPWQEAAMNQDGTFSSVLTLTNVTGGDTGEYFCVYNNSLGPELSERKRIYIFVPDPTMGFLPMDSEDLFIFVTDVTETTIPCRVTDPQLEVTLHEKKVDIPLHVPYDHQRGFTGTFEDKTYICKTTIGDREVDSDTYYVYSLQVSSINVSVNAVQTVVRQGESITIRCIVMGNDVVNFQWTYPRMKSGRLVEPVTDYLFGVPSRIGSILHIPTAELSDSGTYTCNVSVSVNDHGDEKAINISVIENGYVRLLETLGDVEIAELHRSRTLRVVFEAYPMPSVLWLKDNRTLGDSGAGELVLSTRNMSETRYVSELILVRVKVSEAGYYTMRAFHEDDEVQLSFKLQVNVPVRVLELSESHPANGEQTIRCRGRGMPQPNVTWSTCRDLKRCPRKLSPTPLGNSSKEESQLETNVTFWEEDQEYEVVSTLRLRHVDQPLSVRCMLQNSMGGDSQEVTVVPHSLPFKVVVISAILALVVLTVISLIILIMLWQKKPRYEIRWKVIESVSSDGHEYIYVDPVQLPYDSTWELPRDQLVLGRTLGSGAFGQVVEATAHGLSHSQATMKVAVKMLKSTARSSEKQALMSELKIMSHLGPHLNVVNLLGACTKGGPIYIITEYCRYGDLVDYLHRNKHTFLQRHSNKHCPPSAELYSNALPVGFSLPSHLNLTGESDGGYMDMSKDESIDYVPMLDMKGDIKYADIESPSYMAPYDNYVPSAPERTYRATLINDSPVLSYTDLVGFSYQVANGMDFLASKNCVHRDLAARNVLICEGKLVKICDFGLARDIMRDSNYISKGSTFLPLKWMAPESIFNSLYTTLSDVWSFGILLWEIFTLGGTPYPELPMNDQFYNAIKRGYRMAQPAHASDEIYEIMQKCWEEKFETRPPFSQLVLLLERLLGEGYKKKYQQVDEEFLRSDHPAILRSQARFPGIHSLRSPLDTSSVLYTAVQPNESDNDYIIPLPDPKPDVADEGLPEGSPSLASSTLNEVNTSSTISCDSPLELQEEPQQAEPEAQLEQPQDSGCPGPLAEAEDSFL
Procedure: In vitro effect of tyrphostins on purified PDGFR autophosphroylation: Membranes were prepared from confluent cultures of canine kidney epithelial cells (TRMP) or Swiss 3T3 cells as described. Further purification of the PDGF-βR was performed as described in [23]. Briefly, 2 μl kinase preparation were incubated for 20 minutes on ice in the presence of 2 μg/ml PDGF-BB in 20 μl of 50 mM Hepes (pH 7.4). Kinase reaction was executed for 10 minute on ice with 5 mM MnCl2, 1 mM vanadate, 10 μM [γ-^32P]ATP (2.5 μCi per reaction). The reaction was terminated by addition of 10 μl of a solution containing 6% SDS, 30% β-mercaptoethanol, 40% glycerol, and 0.5 mg/ml bromophenol blue. The samples were heated for 5 minutes at 95° C. and subjected to polyacrylamide gel electrophoresis in the presence of 0.4% SDS, using 7.5% polyacrylamide gels. The gels were stained, dried and subjected to autoradiographic analysis. For quantification of radioactivity in electrophoresis gels, a Phospho-Imager (Molecular Dynamics, Fuji, or Bio-Rad) was used according to the instructions of the manufacturer. To obtain autoradiograms, objects were exposed to X-ray film (Fuji RX or Kodak X-OMAT) with intensifying screens at −70° C.
Inhibition of PDGF-induced tyrosine phosphorylation by tyrphostins in vitro: A preparation of purified PDGFR from Swiss 3T3 cell membranes was used to assess and compare the inhibitory effects of tyrphostin compounds on tyrosine kinase activity. Various concentrations of the purified “transoid” isomers AG2033 and AG2043, were evaluated. Table 8 below presents IC50 values (50% inhibition of phosphorylation, μM) of AG2033 and AG2043. Data presents the potencies of the compounds with respect to PDGFR, as was determined using the isolated receptor (see experimental methods section above).
Kinase reactions, using an isolated PDGFβR preparation, in the presence of 0.03-3 μM tyrphostin, were conducted, utilizing [γ-^32P]ATP as probe. Densitometric evaluation, relative to control lacking the tyrphostin inhibitor (100%), results in the percent autokinase activity, presented in Table 8 and in the dose-response curves for the purified transoid isomers AG2033 (FIG. 6) and AG2043 (FIG. 7). Further comparison between the resulting autoradiogrms for each pair of geometrical isomers AG2033 and AG2034 (upper panel); AG2043 and AG2044 (lower panel), for their inhibitory activity towards PDGF-induced PDGFβR autophosphorylation (concentration range: 0.1-10 μM) in intact cells is presented in FIG. 8. […] Similar potency relation exists between the AG2043 and AG2044 isomers.

PDGF β-receptor = PDGF β-receptor (Homo sapiens, UniProt P09619); assay: PDGF-induced PDGFR autophosphorylation in intact PAEC cells; format: cell-based; parameters: expressed in transfected cells; host or cells: porcine aortic endothelial cells (PAEC), stably transfected; conditions: intact PAEC cells expressing PDGFR, PDGF-BB stimulated; read-out: IC50 (50% inhibition of phosphorylation) PDGFR
Sequence of PDGF β-receptor (P09619 33-1106): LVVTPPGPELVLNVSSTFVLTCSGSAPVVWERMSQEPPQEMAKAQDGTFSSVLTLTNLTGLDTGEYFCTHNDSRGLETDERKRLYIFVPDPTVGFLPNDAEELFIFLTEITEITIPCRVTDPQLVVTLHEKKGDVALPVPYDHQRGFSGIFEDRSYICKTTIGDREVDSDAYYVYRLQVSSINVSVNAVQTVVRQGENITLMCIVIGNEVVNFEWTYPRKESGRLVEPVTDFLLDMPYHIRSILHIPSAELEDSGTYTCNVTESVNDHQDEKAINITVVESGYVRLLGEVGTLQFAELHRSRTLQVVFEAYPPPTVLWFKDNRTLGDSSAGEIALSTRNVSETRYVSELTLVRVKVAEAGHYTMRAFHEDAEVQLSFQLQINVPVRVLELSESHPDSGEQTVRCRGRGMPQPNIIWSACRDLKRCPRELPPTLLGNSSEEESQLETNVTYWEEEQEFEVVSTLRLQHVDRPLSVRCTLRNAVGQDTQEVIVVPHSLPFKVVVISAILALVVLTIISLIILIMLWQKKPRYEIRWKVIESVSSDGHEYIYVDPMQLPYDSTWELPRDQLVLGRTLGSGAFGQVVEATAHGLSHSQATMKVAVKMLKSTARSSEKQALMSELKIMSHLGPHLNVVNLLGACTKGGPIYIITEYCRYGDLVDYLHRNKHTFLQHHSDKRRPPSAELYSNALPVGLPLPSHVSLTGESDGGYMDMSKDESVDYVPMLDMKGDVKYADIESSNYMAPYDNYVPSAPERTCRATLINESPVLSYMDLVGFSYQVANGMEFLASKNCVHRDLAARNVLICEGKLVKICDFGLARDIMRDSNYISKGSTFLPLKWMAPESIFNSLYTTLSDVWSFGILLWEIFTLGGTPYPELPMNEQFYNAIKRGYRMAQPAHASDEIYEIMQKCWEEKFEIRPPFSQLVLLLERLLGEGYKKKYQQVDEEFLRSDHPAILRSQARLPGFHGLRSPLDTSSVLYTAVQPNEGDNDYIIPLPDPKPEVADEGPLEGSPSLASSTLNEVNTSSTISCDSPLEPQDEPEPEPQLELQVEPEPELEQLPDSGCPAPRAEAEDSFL
Procedure: as §1
The analysis of PDGF β-receptor phosphorylation was performed as follows. Cell lysates were subjected to immunoprecipitation using the PDGF β-receptor specific antiserum R3 [5]. The precipitates were subjected to polyacrylamide (7.5%) gel electrophoresis in presence of sodium dodecyl sulfate (SDS-PAGE) and were thereafter blotted onto a nitrocellulose membrane (Hybond C-EXTRA, Amersham). Phosphorylated proteins were detected by immunoblotting using the horseradish-peroxidase conjugated phosphotyrosine antibodies PY20 and 4G10 (Upstate Biotechnology), followed by application of secondary horseradish-peroxidase conjugated goat-anti-mouse antibody and chemoluminescence-based detection (ECL, Amersham) and autoradiography.
The data in Table 9 presents the differential potencies of the various compounds with respect to PDGFR and KDR, as was performed on intact PAEC cells expressing these receptors (see experimental methods section above).

[2] = absence of PDGF-BB, read-out: IC50 of basal migratory activity of HCASMC
[3] = presence of PDGF-BB, read-out: IC50 of induced migratory activity of HCASMC
[4] = 0.03 μM tyrphostin, [γ-32P]ATP, densitometry

T1 sequence (P35968 20-1356): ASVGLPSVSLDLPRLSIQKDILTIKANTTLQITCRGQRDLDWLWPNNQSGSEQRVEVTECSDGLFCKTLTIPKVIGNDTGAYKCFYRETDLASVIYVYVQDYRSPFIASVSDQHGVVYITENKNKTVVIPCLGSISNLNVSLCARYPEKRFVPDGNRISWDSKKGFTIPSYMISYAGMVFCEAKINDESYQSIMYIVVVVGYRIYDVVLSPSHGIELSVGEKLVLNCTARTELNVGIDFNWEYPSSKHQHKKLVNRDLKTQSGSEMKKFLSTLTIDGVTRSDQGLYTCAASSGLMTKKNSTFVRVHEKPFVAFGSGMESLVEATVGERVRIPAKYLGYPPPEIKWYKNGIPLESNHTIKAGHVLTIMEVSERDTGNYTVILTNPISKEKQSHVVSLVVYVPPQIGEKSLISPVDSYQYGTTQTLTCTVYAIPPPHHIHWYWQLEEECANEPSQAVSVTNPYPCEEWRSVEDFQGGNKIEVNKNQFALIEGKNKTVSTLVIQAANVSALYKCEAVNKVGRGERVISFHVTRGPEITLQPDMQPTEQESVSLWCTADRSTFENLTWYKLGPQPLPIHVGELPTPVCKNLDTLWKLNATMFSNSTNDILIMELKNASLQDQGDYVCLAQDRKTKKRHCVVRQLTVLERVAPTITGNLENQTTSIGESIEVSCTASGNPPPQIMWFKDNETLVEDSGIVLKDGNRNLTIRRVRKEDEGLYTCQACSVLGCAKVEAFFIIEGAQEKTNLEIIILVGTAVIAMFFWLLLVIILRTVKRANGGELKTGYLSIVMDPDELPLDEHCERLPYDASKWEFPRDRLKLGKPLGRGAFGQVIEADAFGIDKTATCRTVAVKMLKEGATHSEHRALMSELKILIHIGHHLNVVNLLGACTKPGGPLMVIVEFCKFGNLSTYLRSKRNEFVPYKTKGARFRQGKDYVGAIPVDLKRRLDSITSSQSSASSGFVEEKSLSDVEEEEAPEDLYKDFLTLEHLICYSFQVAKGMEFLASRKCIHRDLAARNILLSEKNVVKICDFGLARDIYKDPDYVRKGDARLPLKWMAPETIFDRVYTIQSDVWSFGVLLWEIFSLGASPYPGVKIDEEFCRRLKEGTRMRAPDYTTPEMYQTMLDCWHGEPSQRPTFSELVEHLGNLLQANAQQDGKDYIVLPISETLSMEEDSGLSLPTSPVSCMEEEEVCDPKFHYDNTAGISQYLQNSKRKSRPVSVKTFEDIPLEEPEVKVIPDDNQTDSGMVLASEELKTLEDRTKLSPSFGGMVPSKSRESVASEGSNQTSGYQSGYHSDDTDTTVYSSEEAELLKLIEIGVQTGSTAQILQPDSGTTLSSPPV

| pIC50 (KDR) | pIC50 [1, 2] | pIC50 [1, 3] | % of Control (percent autokinase activity) (PDGFβR; [4]) | % of Control (percent autokinase activity) (PDGFβR; 0.1 μM tyrphostin) | % of Control (percent autokinase activity) (PDGFβR; 0.3 μM tyrphostin) | % of Control (percent autokinase activity) (PDGFβR; 1 μM tyrphostin) | % of Control (percent autokinase activity) (PDGFβR; 3 μM tyrphostin) | pIC50 (PDGFβR) | pIC50 (PDGF β-receptor) | Structure (SMILES) |
| --- | --- | --- | --- | --- | --- | --- | --- | --- | --- | --- |
| < 5.00 | > 5.00 | > 5.52 | 97.9 % of Control | 37 % of Control | 17.9 % of Control | 13.7 % of Control | 9.8 % of Control | 7.15 | 6.30 | Cc1nc2cc3nc(-c4ccccc4)cnc3cc2n1C [AG2033, 1,2-dimethyl-6-phenyl imidazolo[5,4-g]quinoxaline] |
| 5.52 | > 5.00 | ~5.52 | 60.1 % of Control | 41.6 % of Control | 40.4 % of Control | 15.1 % of Control | 11 % of Control | 7.05 | 6.00 | Cc1nc2cc3nc(-c4cccs4)cnc3cc2n1C [AG2043, 1,2-dimethyl-6-(2-thiophene) imidazolo[5,4-g]quinoxaline] |

From patent US6673798B2, “PDGF receptor kinase inhibitory compounds, their preparation, purification and pharmaceutical compositions including same” (Yissum Research Development Company of the Hebrew …, priority 1999, dated 2004)
